# Laboratory results taken from patent US20180193294A1, “Dehydroabietic acid (DHAA) derivatives for use as ion channel openers” (priority 2015, published 2018).
# How the values were obtained:
# [1] = test system: dorsal root ganglion (DRG) neurons; assay: Resting membrane potential of DRG neurons, whole-cell current clamp; format: cell-based, mice; details: 10 μM, pH 7.4, 120 s application
# Experimental: All animal experiments were approved by the local Animal Care and Use Committee and followed international guidelines. Five female 7-12 week-old C57BL/6 mice (Scanbur) were used for this study. The mice were anaesthetized with isoflurane and decapitated. Dorsal root ganglia (DRG) were dissected from all spinal levels and enzymatically digested with collagenase (250 CDU/ml) for 15 min, and then trypsin (1 mg/ml) was added for another 30 min. The ganglia were centrifuged and resuspended in Leibovitz L-15 media with glutamine, supplemented with 10% fetal calf serum, 38 mM glucose, 24 mM NaHCO3 and penicillin/streptomycin. The ganglia were triturated and the DRG neurons plated on poly-D-lysine coated plastic coverslips. The neurons were cultured at 37° C. with 5% CO2 for 2-3 days before the electrophysiological recordings.
# All manual electrophysiological recordings were performed at room temperature (20-23° C.), using a GeneClamp 500B amplifier (for oocytes) or a Axopatch 200B amplifier (for manual patch clamp of CHO—K1 cells and DRG neurons) and a Digidata 1440A digitizer and pClamp 10 software (all from Molecular Devices, Inc., Sunnyvale, Calif., USA). Compounds were dissolved to 100 mM in 99.5% EtOH and stored at −20° C. Compounds were diluted in extracellular solution to the desired test concentration.
# CHO—K1 Cells were plated on coverslips 2 h before the manual electrophysiological recordings. Coverslips with CHO—K1 cells or DRG neurons were placed in a recording chamber and perfused with extracellular solution by a gravity-fed perfusion system. Substances were applied by a pressurized, automated OctaFlow perfusion system (ALA Scientific Instruments). The signals were sampled at 5-20 kHz after low-pass filtering at 2-5 kHz. For CHO—K1 cells the intracellular solution contained (in mM): 120 K-gluconate, 10 KCl, 5 EGTA, 10 HEPES, 4 Mg-ATP, 0.3 Na-GTP, pH 7.3; the extracellular solution contained (in mM): 135 NaCl, 4 KCl, 10 HEPES, 1 MgCl2, 1.8 CaCl2, 10 glucose, pH 7.4. Currents were evoked in CHO—K1 cells in whole-cell voltage-clamp mode from a holding potential of −80 mV by 100-ms long, 10-mV steps ranging from −80 to +80 mV.
# For DRG neurons the intracellular solution contained (in mM): 120 K-gluconate, 10 KCl, 1 EGTA, 10 HEPES, 4 Mg-ATP, 0.3 Na-GTP, pH 7.3; the extracellular solution contained (in mM): 144 NaCl, 2.5 KCl, 10 HEPES, 0.5 MgCl2, 2 CaCl2, 10 glucose, pH 7.4. A liquid-junction potential of approximately −14 mV was corrected for. […] Small and medium sized DRG neurons were selected for whole-cell current-clamp recording. 10 μM of the compounds were applied for 120 s to study the effect on the resting membrane potential, and for 45-120 s to study the effects on evoked action potentials. To evoke action potentials 800-ms depolarizing pulses
# The compound effect on the resting membrane potential Vm was determined by subtracting the control pre-compound Vm from the Vm at the end of the 120 s application of test compound.
# [2] = molecular target: 3R Shaker K channel (Drosophila melanogaster, UniProt P08510, A359R/M356R); assay: physchem; format: cell-based; details: Table 1; 100 μM, pH 7.4, Xenopus oocytes
# Sequence of 3R Shaker K channel (P08510 whole entry M356R/A359R): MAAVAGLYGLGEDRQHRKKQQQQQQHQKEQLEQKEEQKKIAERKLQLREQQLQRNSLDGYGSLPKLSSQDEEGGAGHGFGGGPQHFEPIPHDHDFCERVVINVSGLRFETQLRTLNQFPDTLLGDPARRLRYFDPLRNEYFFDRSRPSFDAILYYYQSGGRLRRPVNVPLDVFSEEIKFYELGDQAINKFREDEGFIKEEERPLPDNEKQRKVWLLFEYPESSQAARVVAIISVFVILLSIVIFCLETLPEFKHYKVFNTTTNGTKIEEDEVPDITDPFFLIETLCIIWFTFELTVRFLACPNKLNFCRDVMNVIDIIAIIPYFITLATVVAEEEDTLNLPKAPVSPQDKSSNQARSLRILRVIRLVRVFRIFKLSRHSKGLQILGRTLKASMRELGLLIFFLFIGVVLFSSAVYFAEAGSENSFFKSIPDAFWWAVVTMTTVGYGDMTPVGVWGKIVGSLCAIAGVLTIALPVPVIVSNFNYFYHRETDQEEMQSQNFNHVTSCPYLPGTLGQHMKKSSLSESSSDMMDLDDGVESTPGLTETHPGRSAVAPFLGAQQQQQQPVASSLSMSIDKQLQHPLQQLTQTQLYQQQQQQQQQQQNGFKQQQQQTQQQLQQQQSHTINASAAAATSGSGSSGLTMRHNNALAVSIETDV
# How it was run: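 Two-electrode voltage clamp at 20-23° C. in oocytes (also CHO-K1 stable line, manual patch clamp) expressing Shaker H4 lacking N-type inactivation; 1K extracellular solution, pH 7.4, holding −80 mV, 100-ms 5-mV steps up to +70 mV. Compound-induced G(V) shift taken at 10% of control Gmax (oocytes) or as V1/2 difference (CHO-K1).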
Compound,shift of the resting membrane potential (ΔVm) [1],G(V) shift [2]
"CC(C)c1cc2c(cc1Cl)[C@@]1(C)CCC[C@@](C)(C(=O)O)C1CC2 (stereo partly drawn) [Wu13, (1R,4aS)-6-chloro-7-isopropyl-1,4a-dimethyl-1,2,3,4,4a,9,10,10a-octahydrophenanthrene-1-carboxylic acid]",most potent compounds on the DRG neurons,−15.8 mV
"C=CCO/N=C1\CC2[C@](C)(C(=O)O)CCC[C@]2(C)c2cc(Cl)c(C(C)C)cc21 (stereo partly drawn) [Wu23, (1R,4aS,E)-9-((allyloxy)imino)-6-chloro-7-isopropyl-1,4a-dimethyl-1,2,3,4,4a,9,10,10a-octahydrophenanthrene-1-carboxylic acid]",intermediately potent hyperpolarizers,−26.7 mV
"CO/N=C1\CC2[C@](C)(C(=O)O)CCC[C@]2(C)c2ccc(C(C)C)c(Br)c21 (stereo partly drawn) [Wu74, (1R,4aS,E)-8-bromo-7-isopropyl-9-(methoxyimino)-1,4a-dimethyl-1,2,3,4,4a,9,10,10a-octahydrophenanthrene-1-carboxylic acid]",intermediately potent hyperpolarizers,−14.7 mV
